≈ marks a conversion by molar mass, not a printed value. Read-outs that look alike come from different tables or passages of the source.
Tests used:
[1] = system: HBV replication in HepG2.2.15 cells; test: Anti-HBV activity in vitro in HepG2.2.15 cells (extracellular HBV DNA by qPCR); assay type: cell-based; conditions: read-out: EC50
Outline: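 Constitutively HBV-producing HepG2.2.15 cells were seeded overnight at 37 °C, then treated with half-log serial dilutions of compound (0.5% DMSO final) for five days. Supernatant HBV DNA was extracted and quantified by qPCR; EC50 is the concentration inhibiting HBV replication by 50%.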

HepDE19 cells = test: Cytotoxicity (CCK-8 cell viability) and selectivity index; assay type: cell-based, human; conditions: for CC50: cytotoxicity, concentration resulting in death of 50% of host cells; for Selectivity index (CC50/EC50): CC50 value/EC50 value
Excerpt: (§1) HepG2.2.15 and HepDE19 are stably-transfected cell lines containing the HBV genome. Both cell lines are derived from the hepatoblastoma cell line Hep G2 (American Type Culture Collection, ATCC® HB-8065™) by the published procedures described in references: M A Selles et al. Proc. Natl. Acad. Sci. USA 1987, 84, 1005-1009 and H Guo et al. Journal of Virology 2007, 81, 12472-12484, respectively. Both cell lines were maintained in Dulbecco's modified Eagle's medium (DMEM)-F12 medium supplemented with 10% fetal bovine serum, 100 U/mL penicillin, 100 μg/mL streptomycin, and 0.5 mg/mL of G418.
(§2) In a cell culture model, apparent antiviral activity of a compound can be the result of host cell death after exposure to the compound. To determine whether the anti-HBV effect of a test compound is due to cytotoxicity, HepDE19 cells were seeded into 96-well plates (5×10^3 cells per well) and treated with compounds as described above for EC50 determination. Five days after treatment, cell viability was measured by addition of 20 μL of CCK-8 reagent. Two hours after incubation at 37° C., the absorbance at wavelengths of 450 nm and 630 nm (OD450 and OD630) was recorded by a plate reader. The concentration results in the death of 50% of the host cells (CC50) of each compound was determined (See Table 5).

[2] = Human microsomal clearance assay; assay type: in vitro ADME
Outline: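 Liver microsomes (0.5 mg/mL protein) were incubated with 1 μM compound at 37 °C, pH 7.4 phosphate, with an NADPH-regenerating system. Samples at 0-30 min were quenched and measured by LC-MS/MS for parent loss. No-NADPH controls were included.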

[3] = Lyophilisation solubility assay (Lysa); assay type: physicochemical; conditions: for solubility thermodynamic: pH 6.5, aqueous buffer, thermodynamic from solid
Outline: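 DMSO was evaporated from 10 mM stocks, and residues were taken up in 0.05 M phosphate buffer pH 6.5, stirred 1 h, shaken 2 h and left overnight. Filtrates were quantified by UV or HPLC-UV against a four-point calibration, in duplicate. Values are in μg/ml, with a lower-bound value when >80% dissolved.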

[4] = Cytotoxicity (CCK-8 cell viability) and selectivity index; assay type: cell-based, human; conditions: human, HepDE19 cells; cytotoxicity, concentration resulting in death of 50% of host cells
Excerpt: as §1, §2

[5] = Anti-HBV activity in HepG2.2.15 cells
[6] = Hepatitis B virus, HepG2.2.15, Anti-HBV activity in HepG2.2.15 cells

SMILES | EC50 [1, 6] | CLh ([2]; human, 1 μM, pH 7.4) | solubility thermodynamic [3] | also measured
COC(=O)C1=C(CN2[C@@H]3C[C@@H](CC(=O)O)C[C@H]2C(F)(F)C3)NC(c2nccs2)=N[C@H]1c1ccc(Cl)c(F)c1 (single isomer, unassigned) [Example 113, 2-[(1R,3R,5S)-8-[[(4S)-4-(4-chloro-3-fluoro-phenyl)-5-methoxycarbonyl-2-thiazol-2-yl-1,4-dihydropyrimidin-6-yl]methyl]-6,6-difluoro-8-azabicyclo[3.2.1]octan-3-yl]acetic acid or 2-[(1S,3S,5R)-8-[[(4S)-4-(4-chloro-3-fluoro-phenyl)-5-methoxycarbonyl-2-thiazol-2-yl-1,4-dihydropyrimidin-6-yl]methyl]-6,6-difluoro-8-azabicyclo[3.2.1]octan-3-yl]acetic acid] | – | – | – | EC50 [1, 5]: 9.1 nM; CC50 (HepDE19 cells): 58 µM; CLh ([2]; human microsomal clearance): 6.2 mL/min/kg
COC(=O)C1=C(CN2[C@H]3COC[C@@H]2C(F)(F)[C@H](CC(=O)O)C3)NC(c2nccs2)=N[C@H]1c1ccc(F)c(F)c1Cl (single isomer, unassigned) [Example 131, 2-[(1R,5R,7S)-9-[[(4R)-4-(2-chloro-3,4-difluoro-phenyl)-5-methoxycarbonyl-2-thiazol-2-yl-1,4-dihydropyrimidin-6-yl]methyl]-6,6-difluoro-3-oxa-9-azabicyclo[3.3.1]nonan-7-yl]acetic acid or 2-[(1S,5S,7R)-9-[[(4R)-4-(2-chloro-3,4-difluoro-phenyl)-5-methoxycarbonyl-2-thiazol-2-yl-1,4-dihydropyrimidin-6-yl]methyl]-6,6-difluoro-3-oxa-9-azabicyclo[3.3.1]nonan-7-yl]acetic acid] | – | – | – | EC50 [1, 5]: 5.7 nM; CC50 (HepDE19 cells): 53 µM; CLh ([2]; human microsomal clearance): 0 mL/min/kg; Lysa ([3]; 0.05 M phosphate buffer (pH 6.5), reported as bigger than the value if more than 80% of the sample is in solution): 261 µg/mL
COC(=O)C1=C(CN2C3COCC2CC(O)C3)NC(c2nccs2)=N[C@H]1c1ccc(F)cc1Cl (stereo partly drawn) [Example 7, (R)-4-(2-Chloro-4-fluoro-phenyl)-6-(7-hydroxy-3-oxa-9-aza-bicyclo[3.3.1]non-9-ylmethyl)-2-thiazol-2-yl-1,4-dihydro-pyrimidine-5-carboxylic acid methyl ester] | 12 nM | – | – | CC50 at 5 days [4]: > 100 µM; Selectivity index (CC50/EC50) (HepDE19 cells): >8333
COC(=O)C1=C(CN2C3COCC2CN(CC(F)F)C3)NC(c2nccs2)=N[C@H]1c1ccc(F)cc1Cl [Example 14, (R)-4-(2-Chloro-4-fluoro-phenyl)-6-[7-(2,2-difluoro-ethyl)-3-oxa-7,9-diaza-bicyclo[3.3.1]non-9-ylmethyl]-2-thiazol-2-yl-1,4-dihydro-pyrimidine-5-carboxylic acid methyl ester] | 13 nM | – | – | CC50 at 5 days [4]: > 100 µM; Selectivity index (CC50/EC50) (HepDE19 cells): >7692
COC(=O)C1=C(CN2C3COCC2CN(C(=O)OC)C3)NC(c2nccs2)=N[C@H]1c1ccc(F)cc1Cl [Example 17, 9-[(R)-6-(2-Chloro-4-fluoro-phenyl)-5-methoxycarbonyl-2-thiazol-2-yl-3,6-dihydro-pyrimidin-4-ylmethyl]-3-oxa-7,9-diaza-bicyclo[3.3.1]nonane-7-carboxylic acid methyl ester] | 4 nM | – | – | CC50 at 5 days [4]: 50 µM; Selectivity index (CC50/EC50) (HepDE19 cells): 11628
COC(=O)CC1CC2COCC(C1)N2CC1=C(C(=O)OC)[C@H](c2ccc(F)cc2Cl)N=C(c2nccs2)N1 (stereo partly drawn) [Example 25, (R)-4-(2-Chloro-4-fluoro-phenyl)-6-(7-methoxycarbonylmethyl-3-oxa-9-aza-bicyclo[3.3.1]non-9-ylmethyl)-2-thiazol-2-yl-1,4-dihydro-pyrimidine-5-carboxylic acid methyl ester] | 14.5 nM | – | – | CC50 at 5 days [4]: > 100 µM; Selectivity index (CC50/EC50) (HepDE19 cells): >6897
COC(=O)C1=C(CN2[C@H]3C[C@@H](CC(=O)O)C[C@@H]2C(F)(F)C3)NC(c2nccs2)=N[C@H]1c1ccc(F)c(F)c1 [Example 115, 2-[(1S,3R,5R)-8-[[(4S)-4-(3,4-difluoro-phenyl)-5-methoxycarbonyl-2-thiazol-2-yl-1,4-dihydropyrimidin-6-yl]methyl]-6,6-difluoro-8-azabicyclo[3.2.1]octan-3-yl]acetic acid] | 163 nM | 4.6 mL/min/kg | 128 µg/mL (≈ 232 µM) | –
COC(=O)C1=C(CN2C3COCC2C(O)[C@H](CC(=O)O)C3)NC(c2nccs2)=N[C@H]1c1ccc(F)cc1Cl (stereo partly drawn) [Example 123, 2-[(7S)-9-[[(4R)-4-(2-chloro-4-fluoro-phenyl)-5-methoxycarbonyl-2-thiazol-2-yl-1,4-dihydropyrimidin-6-yl]methyl]-6-hydroxy-3-oxa-9-azabicyclo[3.3.1]nonan-7-yl]acetic acid] | 35.7 nM | 3.0 mL/min/kg | > 753 µg/mL | –
COC(=O)C1=C(CN2C3COCC2C(O)[C@@H](CC(=O)O)C3)NC(c2nccs2)=N[C@H]1c1ccc(F)cc1Cl (stereo partly drawn) [Example 124, 2-[(7R)-9-[[(4R)-4-(2-chloro-4-fluoro-phenyl)-5-methoxycarbonyl-2-thiazol-2-yl-1,4-dihydropyrimidin-6-yl]methyl]-6-hydroxy-3-oxa-9-azabicyclo[3.3.1]nonan-7-yl]acetic acid] | 296 nM | 4.2 mL/min/kg | > 753 µg/mL | –
COC(=O)C1=C(CN2C3COCC2C(F)(F)[C@@H](CC(=O)O)C3)NC(c2nccs2)=N[C@H]1c1ccc(F)cc1Cl (stereo partly drawn) [Example 125, 2-[(7R)-9-[[(4R)-4-(2-chloro-4-fluoro-phenyl)-5-methoxycarbonyl-2-thiazol-2-yl-1,4-dihydropyrimidin-6-yl]methyl]-6,6-difluoro-3-oxa-9-azabicyclo[3.3.1]nonan-7-yl]acetic acid] | 26.1 nM | 0 mL/min/kg | 170 µg/mL (≈ 291 µM) | –
COC(=O)C1=C(CN2C3COCC2CC(CC(=O)O)C3)NC(c2nccs2)=N[C@H]1c1ccccc1Br (stereo partly drawn) [Example 134, Endo-2-[9-[[(4R)-4-(2-bromophenyl)-5-methoxycarbonyl-2-thiazol-2-yl-1,4-dihydropyrimidin-6-yl]methyl]-3-oxa-9-azabicyclo[3.3.1]nonan-7-yl]acetic acid] | 21 nM | 1.7 mL/min/kg | > 695 µg/mL | –
COC(=O)C1=C(CN2C3COCC2CC(CC(=O)O)C3)NC(c2nccs2)=N[C@H]1c1ccc(Cl)c(F)c1 (stereo partly drawn) [Example 136, Endo-2-[9-[[(4S)-4-(4-chloro-3-fluoro-phenyl)-5-methoxycarbonyl-2-thiazol-2-yl-1,4-dihydropyrimidin-6-yl]methyl]-3-oxa-9-azabicyclo[3.3.1]nonan-7-yl]acetic acid] | 102 nM | 5.5 mL/min/kg | 485 µg/mL (≈ 883 µM) | –
COC(=O)C1=C(CN2C3COCC2CC(N)(C(=O)O)C3)NC(c2nccs2)=N[C@H]1c1ccc(F)cc1Cl (stereo partly drawn) [Example 139, 7-amino-9-[[(4R)-4-(2-chloro-4-fluoro-phenyl)-5-methoxycarbonyl-2-thiazol-2-yl-1,4-dihydropyrimidin-6-yl]methyl]-3-oxa-9-azabicyclo[3.3.1]nonane-7-carboxylic acid] | 172 nM | 5.1 mL/min/kg | > 610 µg/mL | –
COC(=O)C1=C(CN2[C@H]3CC[C@]2(C(=O)O)CC3(F)F)NC(c2nccs2)=N[C@H]1c1ccc(F)cc1Cl [Example 148, (1S,4R)-7-[[(4R)-4-(2-chloro-4-fluoro-phenyl)-5-methoxycarbonyl-2-thiazol-2-yl-1,4-dihydropyrimidin-6-yl]methyl]-2,2-difluoro-7-azabicyclo[2.2.1]heptane-4-carboxylic acid] | 59.2 nM | 2.3 mL/min/kg | > 655 µg/mL | –
COC(=O)C1=C(CN2[C@@H]3CC[C@@]2(C(=O)O)CC3(F)F)NC(c2nccs2)=N[C@H]1c1ccc(F)cc1Cl [Example 149, (1R,4S)-7-[[(4R)-4-(2-chloro-4-fluoro-phenyl)-5-methoxycarbonyl-2-thiazol-2-yl-1,4-dihydropyrimidin-6-yl]methyl]-2,2-difluoro-7-azabicyclo[2.2.1]heptane-4-carboxylic acid] | 4 nM | 3.4 mL/min/kg | > 665 µg/mL | –

— patent US9266904B2, “6-bridged heteroaryldihydropyrimidines for the treatment and prophylaxis of hepatitis B virus infection” (priority 2013, dated 2016)
